What was measured:
Format in all cases: cell-based
[1] = biological target: human α1H T-type channels (Homo sapiens, UniProt O95180); assay: T-type calcium channel block, whole cell patch clamp, α1H; details: HEK cells stably expressing human α1H; mainly non-inactivated protocol; values above 10,000 nM represented as 10000
Method in brief: (§1)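 Cells are stable HEK 293 lines carrying human α1G or α1H channels, patched in whole-cell mode. Resting block comes from the non-inactivated pre-pulse; voltage-dependent block from the inactivated protocol.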

[2] = biological target: human α1G T-type channels (Homo sapiens, UniProt O43497); assay: T-type calcium channel block, whole cell patch clamp, α1G; details: HEK cells stably expressing human α1G; mainly non-inactivated protocol; values above 10,000 nM represented as 10000
Sequence of human α1G T-type channels (O43497 whole entry): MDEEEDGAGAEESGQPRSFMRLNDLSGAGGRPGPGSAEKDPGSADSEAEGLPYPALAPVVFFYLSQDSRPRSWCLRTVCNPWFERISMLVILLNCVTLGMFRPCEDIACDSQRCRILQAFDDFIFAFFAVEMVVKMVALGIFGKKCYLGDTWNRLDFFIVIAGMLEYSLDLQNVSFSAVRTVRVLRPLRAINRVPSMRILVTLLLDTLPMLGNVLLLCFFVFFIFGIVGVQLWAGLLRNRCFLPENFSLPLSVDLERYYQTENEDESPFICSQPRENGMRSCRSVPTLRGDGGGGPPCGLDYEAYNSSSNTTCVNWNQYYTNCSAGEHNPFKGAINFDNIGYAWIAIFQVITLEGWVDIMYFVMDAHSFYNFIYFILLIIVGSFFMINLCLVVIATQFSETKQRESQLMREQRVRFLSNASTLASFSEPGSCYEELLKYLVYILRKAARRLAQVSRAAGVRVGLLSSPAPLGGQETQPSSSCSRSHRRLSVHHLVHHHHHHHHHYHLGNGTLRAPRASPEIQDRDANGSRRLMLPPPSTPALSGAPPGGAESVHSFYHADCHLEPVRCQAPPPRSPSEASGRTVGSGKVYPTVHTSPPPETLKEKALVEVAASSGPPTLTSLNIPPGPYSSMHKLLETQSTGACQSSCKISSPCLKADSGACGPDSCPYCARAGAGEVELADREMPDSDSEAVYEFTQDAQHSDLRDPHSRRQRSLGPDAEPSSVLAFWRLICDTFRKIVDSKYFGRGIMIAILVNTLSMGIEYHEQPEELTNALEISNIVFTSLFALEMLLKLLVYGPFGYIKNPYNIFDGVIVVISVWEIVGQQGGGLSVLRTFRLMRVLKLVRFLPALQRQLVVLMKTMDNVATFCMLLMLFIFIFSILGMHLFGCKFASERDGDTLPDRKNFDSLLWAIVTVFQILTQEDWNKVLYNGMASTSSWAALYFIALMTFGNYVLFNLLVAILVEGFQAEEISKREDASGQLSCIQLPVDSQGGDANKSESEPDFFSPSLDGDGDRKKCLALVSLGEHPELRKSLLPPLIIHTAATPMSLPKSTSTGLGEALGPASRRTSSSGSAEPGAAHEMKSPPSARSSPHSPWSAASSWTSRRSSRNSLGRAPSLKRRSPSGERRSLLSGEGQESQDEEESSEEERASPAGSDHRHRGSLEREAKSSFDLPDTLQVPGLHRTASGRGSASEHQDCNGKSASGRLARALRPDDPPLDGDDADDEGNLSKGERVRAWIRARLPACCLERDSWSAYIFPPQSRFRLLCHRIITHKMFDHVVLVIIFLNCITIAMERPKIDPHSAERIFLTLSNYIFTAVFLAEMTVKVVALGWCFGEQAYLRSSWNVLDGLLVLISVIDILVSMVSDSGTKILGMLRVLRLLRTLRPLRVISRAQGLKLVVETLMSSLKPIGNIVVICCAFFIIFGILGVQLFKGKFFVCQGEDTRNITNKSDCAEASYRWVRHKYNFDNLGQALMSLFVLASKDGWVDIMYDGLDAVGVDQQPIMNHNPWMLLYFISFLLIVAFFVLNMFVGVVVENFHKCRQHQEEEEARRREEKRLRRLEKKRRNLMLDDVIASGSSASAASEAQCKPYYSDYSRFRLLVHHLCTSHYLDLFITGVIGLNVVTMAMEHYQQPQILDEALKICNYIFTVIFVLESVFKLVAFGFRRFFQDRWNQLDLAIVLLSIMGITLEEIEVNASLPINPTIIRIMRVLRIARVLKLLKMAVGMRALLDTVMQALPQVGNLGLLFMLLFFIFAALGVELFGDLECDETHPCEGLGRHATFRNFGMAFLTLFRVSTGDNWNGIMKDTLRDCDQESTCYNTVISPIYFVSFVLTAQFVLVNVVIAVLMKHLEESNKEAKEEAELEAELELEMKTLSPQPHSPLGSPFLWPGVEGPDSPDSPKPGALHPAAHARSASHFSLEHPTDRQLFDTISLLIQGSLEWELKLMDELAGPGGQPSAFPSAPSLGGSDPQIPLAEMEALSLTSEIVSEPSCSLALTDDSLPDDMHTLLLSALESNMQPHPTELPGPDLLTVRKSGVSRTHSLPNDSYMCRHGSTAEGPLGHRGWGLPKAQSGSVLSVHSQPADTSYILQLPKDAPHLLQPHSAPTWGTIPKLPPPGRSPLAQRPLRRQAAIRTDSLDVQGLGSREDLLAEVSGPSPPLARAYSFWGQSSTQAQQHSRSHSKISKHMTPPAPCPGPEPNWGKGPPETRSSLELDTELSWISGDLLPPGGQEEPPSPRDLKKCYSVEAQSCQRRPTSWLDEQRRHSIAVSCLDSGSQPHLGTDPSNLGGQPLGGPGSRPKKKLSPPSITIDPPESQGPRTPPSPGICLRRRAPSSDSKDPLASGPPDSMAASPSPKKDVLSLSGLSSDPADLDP
Method in brief: as §1

[3] = biological target: N-type calcium channel subunits (α1B, α2δ, and β3a) (Homo sapiens, UniProt Q00975); assay: Block of Cav2.2 channel, whole cell voltage clamp, manual and PatchXpress; details: Table 5; table follows Assay Example 3 (whole cell voltage clamp / PatchXpress); assay not given
Method in brief: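 Percent block taken as current amplitude ratio with versus without compound, applied in rising doses; IC50 fitted where one cell received multiple doses. Protocol: 50 ms pulses to +20 mV at 0.067 Hz from […] or −90 mV holding; P/n leak subtraction, no junction-potential correction; manual and PatchXpress recordings.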

Sequence of human α1H T-type channels (O95180 whole entry): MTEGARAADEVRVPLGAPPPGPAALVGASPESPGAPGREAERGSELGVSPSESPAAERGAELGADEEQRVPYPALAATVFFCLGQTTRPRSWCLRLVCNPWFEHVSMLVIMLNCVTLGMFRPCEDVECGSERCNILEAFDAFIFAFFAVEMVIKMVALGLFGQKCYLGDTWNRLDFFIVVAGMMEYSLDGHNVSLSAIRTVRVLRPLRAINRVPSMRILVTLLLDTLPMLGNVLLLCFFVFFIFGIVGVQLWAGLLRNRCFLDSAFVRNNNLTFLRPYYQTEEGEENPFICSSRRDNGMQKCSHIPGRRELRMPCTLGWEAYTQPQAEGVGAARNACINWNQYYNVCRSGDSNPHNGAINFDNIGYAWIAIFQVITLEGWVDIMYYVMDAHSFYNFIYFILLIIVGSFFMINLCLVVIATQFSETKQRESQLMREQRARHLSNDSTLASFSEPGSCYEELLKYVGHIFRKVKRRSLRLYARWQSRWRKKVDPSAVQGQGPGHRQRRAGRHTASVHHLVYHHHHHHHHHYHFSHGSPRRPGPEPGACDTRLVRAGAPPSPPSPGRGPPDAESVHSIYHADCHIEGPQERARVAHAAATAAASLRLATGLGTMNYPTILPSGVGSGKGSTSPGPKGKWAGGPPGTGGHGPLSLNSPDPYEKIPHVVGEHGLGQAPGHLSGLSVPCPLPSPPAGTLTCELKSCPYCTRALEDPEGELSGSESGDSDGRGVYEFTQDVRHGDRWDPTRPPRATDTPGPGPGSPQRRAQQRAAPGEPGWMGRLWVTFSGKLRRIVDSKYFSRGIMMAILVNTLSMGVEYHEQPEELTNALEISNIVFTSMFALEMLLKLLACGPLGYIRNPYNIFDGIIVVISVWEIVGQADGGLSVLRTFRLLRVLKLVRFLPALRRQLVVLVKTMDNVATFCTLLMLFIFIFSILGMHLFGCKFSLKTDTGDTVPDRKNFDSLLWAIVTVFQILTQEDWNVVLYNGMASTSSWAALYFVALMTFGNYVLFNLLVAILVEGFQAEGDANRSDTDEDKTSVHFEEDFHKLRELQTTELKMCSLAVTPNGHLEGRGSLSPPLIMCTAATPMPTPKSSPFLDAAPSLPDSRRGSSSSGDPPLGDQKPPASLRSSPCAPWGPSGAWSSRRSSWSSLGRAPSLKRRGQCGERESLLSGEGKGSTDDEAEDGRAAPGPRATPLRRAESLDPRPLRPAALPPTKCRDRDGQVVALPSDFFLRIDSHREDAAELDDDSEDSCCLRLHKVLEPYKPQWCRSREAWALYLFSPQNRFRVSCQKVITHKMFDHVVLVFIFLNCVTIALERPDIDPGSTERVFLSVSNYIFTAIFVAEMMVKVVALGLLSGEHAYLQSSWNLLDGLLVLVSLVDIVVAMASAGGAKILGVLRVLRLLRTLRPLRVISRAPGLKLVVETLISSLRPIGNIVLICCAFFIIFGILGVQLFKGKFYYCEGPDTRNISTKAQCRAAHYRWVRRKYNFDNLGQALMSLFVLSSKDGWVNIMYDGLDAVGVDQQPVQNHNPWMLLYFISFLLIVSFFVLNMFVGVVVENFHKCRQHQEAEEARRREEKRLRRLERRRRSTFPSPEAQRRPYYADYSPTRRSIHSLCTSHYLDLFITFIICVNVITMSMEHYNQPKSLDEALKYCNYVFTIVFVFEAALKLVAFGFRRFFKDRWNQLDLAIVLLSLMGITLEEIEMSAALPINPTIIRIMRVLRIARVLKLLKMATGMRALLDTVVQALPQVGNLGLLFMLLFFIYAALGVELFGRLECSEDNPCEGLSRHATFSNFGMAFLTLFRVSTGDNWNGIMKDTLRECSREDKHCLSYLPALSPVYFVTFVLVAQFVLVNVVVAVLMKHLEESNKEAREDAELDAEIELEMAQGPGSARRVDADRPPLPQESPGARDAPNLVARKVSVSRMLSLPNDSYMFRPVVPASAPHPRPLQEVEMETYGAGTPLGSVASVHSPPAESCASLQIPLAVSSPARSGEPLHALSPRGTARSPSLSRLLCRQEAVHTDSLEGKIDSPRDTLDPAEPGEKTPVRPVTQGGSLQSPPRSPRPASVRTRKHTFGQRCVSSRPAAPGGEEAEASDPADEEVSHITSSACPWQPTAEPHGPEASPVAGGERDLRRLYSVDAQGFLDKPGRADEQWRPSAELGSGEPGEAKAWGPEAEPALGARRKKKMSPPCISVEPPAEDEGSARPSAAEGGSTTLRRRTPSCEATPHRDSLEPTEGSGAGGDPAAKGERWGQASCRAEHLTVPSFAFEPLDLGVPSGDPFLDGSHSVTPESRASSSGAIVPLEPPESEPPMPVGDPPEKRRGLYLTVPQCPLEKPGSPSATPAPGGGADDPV

| Compound | IC50 [1] [µM] | IC50 [2] [µM] | IC50 [3] [nM] |
| --- | --- | --- | --- |
| O=C(N[C@H]1CC[C@](F)(S(=O)(=O)c2cccc(C(F)(F)F)c2)CC1)c1nc2cc(C(F)(F)F)ccc2[nH]1 [Compound 80, N-((1R,4R)-4-fluoro-4-(3-(trifluoromethyl)phenylsulfonyl)cyclohexyl)-5-(trifluoromethyl)-1H-benzo[d]imidazole-2-carboxamide] | 0.46 | 0.9 | 4310 |
| O=C(N[C@H]1CC[C@](F)(S(=O)(=O)c2cccc(C(F)(F)F)c2)CC1)c1cc(F)cc(Cl)c1 [Compound 81, 3-chloro-5-fluoro-N-((1R,4R)-4-fluoro-4-(3-(trifluoromethyl)phenylsulfonyl)cyclohexyl)benzamide] | 0.22 | 0.38 | 410 |
| COc1cc(F)cc(C(=O)N[C@H]2CC[C@](F)(S(=O)(=O)c3cccc(C(F)(F)F)c3)CC2)c1 [Compound 82, 3-fluoro-N-((1R,4R)-4-fluoro-4-(3-(trifluoromethyl)phenylsulfonyl)cyclohexyl)-5-methoxybenzamide] | 1.81 | 7.49 | 3000 |
| O=C(N[C@H]1CC[C@](F)(S(=O)(=O)c2cccc(C(F)(F)F)c2)CC1)c1ccc(F)c(C(F)(F)F)c1 [Compound 83, 4-fluoro-N-((1R,4R)-4-fluoro-4-(3-(trifluoromethyl)phenylsulfonyl)cyclohexyl)-3-(trifluoromethyl)benzamide] | 0.96 | 2.85 | 480 |
| O=C(N[C@H]1CC[C@@](F)(S(=O)(=O)c2cccc(C(F)(F)F)c2)CC1)c1cc(C(F)(F)F)ccn1 [Compound 84, N-((1S,4S)-4-fluoro-4-(3-(trifluoromethyl)phenylsulfonyl)cyclohexyl)-4-(trifluoromethyl)picolinamide] | 0.65 | 2.87 | 310 |
| O=C(N[C@H]1CC[C@@](F)(S(=O)(=O)c2cccc(C(F)(F)F)c2)CC1)c1nc2cc(C(F)(F)F)ccc2[nH]1 [Compound 85, N-((1S,4S)-4-fluoro-4-(3-(trifluoromethyl)phenylsulfonyl)cyclohexyl)-5-(trifluoromethyl)-1H-benzo[d]imidazole-2-carboxamide] | 1.23 | 2.15 | 850 |
| O=C(N[C@H]1CC[C@@](F)(S(=O)(=O)c2cccc(C(F)(F)F)c2)CC1)c1cc(F)cc(Cl)c1 [Compound 86, 3-chloro-5-fluoro-N-((1S,4S)-4-fluoro-4-(3-(trifluoromethyl)phenylsulfonyl)cyclohexyl)benzamide] | 1.93 | > 10 | 190 |
| COc1cc(F)cc(C(=O)N[C@H]2CC[C@@](F)(S(=O)(=O)c3cccc(C(F)(F)F)c3)CC2)c1 [Compound 87, 3-fluoro-N-((1S,4S)-4-fluoro-4-(3-(trifluoromethyl)phenylsulfonyl)cyclohexyl)-5-methoxybenzamide] | 2.1 | 6.44 | 240 |
| CN(C(=O)CN[C@H]1CC[C@@](F)(S(=O)(=O)c2cccc(C(F)(F)F)c2)CC1)C(C)(C)C [Compound 88, N-tert-butyl-2-((1S,4S)-4-fluoro-4-(3-(trifluoromethyl)phenylsulfonyl)cyclohexylamino)-N-methylacetamide] | 3.03 | > 10 | 70 |
| CC1(NC(=O)CN[C@H]2CC[C@@](F)(S(=O)(=O)c3cccc(C(F)(F)F)c3)CC2)CCC1 [Compound 89, 2-((1S,4S)-4-fluoro-4-(3-(trifluoromethyl)phenylsulfonyl)cyclohexylamino)-N-(1-methylcyclobutyl)acetamide] | 0.99 | 1.71 | 120 |
| CC1(NC(=O)CN[C@H]2CC[C@](F)(S(=O)(=O)c3cccc(C(F)(F)F)c3)CC2)CCC1 [Compound 91, 2-((1R,4R)-4-fluoro-4-(3-(trifluoromethyl)phenylsulfonyl)cyclohexylamino)-N-(1-methylcyclobutyl)acetamide] | 0.94 | 2.45 | 410 |
| CC1(NC(=O)c2ccc(F)c(C(F)(F)F)c2)CCC(F)(S(=O)(=O)c2cccc(C(F)(F)F)c2)CC1 (stereo not drawn) [Compound 92, 4-fluoro-N-(4-fluoro-1-methyl-4-(3-(trifluoromethyl)phenylsulfonyl)cyclohexyl)-3-(trifluoromethyl)benzamide] | 0.64 | 2.23 | 330 |
| COc1cc(F)cc(C(=O)NC2(C)CCC(F)(S(=O)(=O)c3cccc(C(F)(F)F)c3)CC2)c1 (stereo not drawn) [Compound 94, 3-fluoro-N-(4-fluoro-1-methyl-4-(3-(trifluoromethyl)phenylsulfonyl)cyclohexyl)-5-methoxybenzamide] | > 10 | > 10 | 230 |
| CC(C)(C)OC(=O)N[C@H]1CC[C@H](S(=O)(=O)c2cccc(C(F)(F)F)c2)CC1 [Compound 95, tert-butyl(1R,4R)-4-(3-(trifluoromethyl)phenylsulfonyl) cyclohexylcarbamate] | 2.15 | 6.97 | 1640 |
| CC(C)(C)OC(=O)N[C@H]1CC[C@@H](S(=O)(=O)c2cccc(C(F)(F)F)c2)CC1 [Compound 96, tert-butyl(1S,4S)-4-(3-(trifluoromethyl)phenylsulfonyl) cyclohexylcarbamate] | 3.82 | > 10 | 430 |
| O=C(CNCC1CC(S(=O)(=O)c2cccc(C(F)(F)F)c2)C1)NC1CCCCC1 (stereo not drawn) [Compound 97, N-cyclohexyl-2-((3-(3-(trifluoromethyl)phenylsulfonyl)cyclobutyl)methylamino)acetamide] | > 10 | 2.14 | 490 |
| CC(C)(C)NC(=O)CNC1(C)CCC(F)(S(=O)(=O)c2cccc(C(F)(F)F)c2)CC1 (stereo not drawn) [Compound 98, N-tert-butyl-2-(4-fluoro-1-methyl-4-(3-(trifluoromethyl)phenylsulfonyl)cyclohexylamino)acetamide] | > 10 | > 10 | 680 |
| O=C(N[C@H]1CC[C@H](CS(=O)(=O)c2cccc(C(F)(F)F)c2)CC1)c1cc(-c2ccc(F)cc2)n[nH]1 [Compound 108, 3-(4-fluorophenyl)-N-((1R,4R)-4-((3-(trifluoromethyl)phenylsulfonyl)methyl)cyclohexyl)-1H-pyrazole-5-carboxamide] | > 10 | 6.3 | 720 |

Other lines, results leading:

| IC50 [1] [µM] | IC50 [2] [µM] | IC50 [3] [nM] | Compound |
| --- | --- | --- | --- |
| > 10 | > 10 | 3750 | O=C(N[C@H]1CC[C@H](CS(=O)(=O)c2cccc(C(F)(F)F)c2)CC1)c1ccc(F)c(C(F)(F)F)c1 [Compound 99, 4-fluoro-3-(trifluoromethyl)-N-((1R,4R)-4-((3-(trifluoromethyl)phenylsulfonyl)methyl)cyclohexyl)benzamide] |
| 1.79 | 5.39 | 2320 | COc1cc(F)cc(C(=O)N[C@H]2CC[C@H](CS(=O)(=O)c3cccc(C(F)(F)F)c3)CC2)c1 [Compound 100, 3-fluoro-5-methoxy-N-((1R,4R)-4-((3-(trifluoromethyl)phenylsulfonyl)methyl)cyclohexyl)benzamide] |
| > 10 | > 10 | 630 | Cn1nc(C(F)(F)F)cc1C(=O)N[C@H]1CC[C@H](CS(=O)(=O)c2cccc(C(F)(F)F)c2)CC1 [Compound 102, 1-methyl-3-(trifluoromethyl)-N-((1R,4R)-4-((3-(trifluoromethyl)phenylsulfonyl)methyl)cyclohexyl)-1H-pyrazole-5-carboxamide] |
| > 10 | 2.18 | 1940 | Cn1cc(C(=O)N[C@H]2CC[C@H](CS(=O)(=O)c3cccc(C(F)(F)F)c3)CC2)c(C(F)(F)F)n1 [Compound 106, 1-methyl-3-(trifluoromethyl)-N-((1R,4R)-4-((3-(trifluoromethyl)phenylsulfonyl)methyl)cyclohexyl)-1H-pyrazole-4-carboxamide] |
| 5.35 | > 10 | 130 | O=C(CN[C@H]1CC[C@H](CS(=O)(=O)c2cccc(C(F)(F)F)c2)CC1)NCC(F)(F)F [Compound 113, N-(2,2,2-trifluoroethyl)-2-((1R,4R)-4-((3-(trifluoromethyl)phenylsulfonyl)methyl)cyclohexylamino)acetamide] |
| > 10 | > 10 | 510 | CC(C)(C)NC(=O)CN[C@H]1CC[C@H](CS(=O)(=O)c2cccc(C(F)(F)F)c2)CC1 [Compound 114, N-tert-butyl-2-((1R,4R)-4-((3-(trifluoromethyl)phenylsulfonyl)methyl)cyclohexylamino)acetamide] |
| > 10 | > 10 | 650 | CN(C(=O)CN[C@H]1CC[C@H](CS(=O)(=O)c2cccc(C(F)(F)F)c2)CC1)C(C)(C)C [Compound 115, N-tert-butyl-N-methyl-2-((1R,4R)-4-((3-(trifluoromethyl)phenylsulfonyl)methyl)cyclohexylamino)acetamide] |
| 4.24 | 8.32 | 2090 | CCN(CC)C(=O)CN[C@H]1CC[C@H](CS(=O)(=O)c2cccc(C(F)(F)F)c2)CC1 [Compound 116, N,N-diethyl-2-((1R,4R)-4-((3-(trifluoromethyl)phenylsulfonyl)methyl)cyclohexylamino)acetamide] |
| > 10 | > 10 | 790 | O=C(CN[C@H]1CC[C@H](CS(=O)(=O)c2cccc(C(F)(F)F)c2)CC1)NC1CCCCC1 [Compound 118, N-cyclohexyl-2-((1R,4R)-4-((3-(trifluoromethyl)phenylsulfonyl)methyl)cyclohexylamino)acetamide] |
